US20240189311A1, “Combination Therapy of Obicetrapib and Ezetimibe for Use in Statin Intolerant Patients Suffering from Hyperlipidemia or Mixed Dyslipidaemia” (NEWAMSTERDAM PHARMA B.V., priority 2021, published 2024)

Experiments:
[1] = test system: low-density lipoprotein cholesterol (LDL-C); assay: Phase 2 study of obicetrapib and ezetimibe in mild dyslipidaemia: LDL-C by Friedewald formula; type: in vivo, human
Excerpt: (§1) Study drugs will be administered by the participant orally and once daily on Days 1 through 57. Study drugs should be administered at approximately the same time each morning, with food. On days with visits scheduled, study drugs should be administered with food following all fasted blood samples. If a participant forgets to take study drug on a given day, they should take the next dose as normal and should not take a double dose to make up for the forgotten dose.
(§2) Up to 2 weeks after the Screening Visit, participants will return to the site on Day 1 (Visit 2) to be randomized and begin treatment. Approximately 100 eligible participants (25 participants per treatment group) will be randomized in a 1:1:1:1 ratio to 1 of the following treatment groups: • Combination therapy: 5 mg obicetrapib+10 mg ezetimibe; • Obicetrapib monotherapy: 5 mg obicetrapib+placebo ezetimibe; • Ezetimibe monotherapy: placebo obicetrapib+10 mg ezetimibe; or • Placebo: placebo obicetrapib+placebo ezetimibe.
LDL-C level was collected using the following 2 approaches: • 1. At each scheduled visit, LDL-C level was calculated using the Friedewald formula; and • 2. In addition, at baseline (Day 1) and at the end of the 8-week Treatment Period (Day 57), LDL-C was measured for all participants by preparative ultracentrifugation (PUC). Primary Efficacy Endpoint Primary analysis
The primary efficacy analysis of the percent change from Day 1 to Day 57 in LDL-C was performed using a mixed model for repeated measures (MMRM) approach. The analysis included fixed effects for treatment, visit, and treatment-by-visit interaction, along with a covariate of the baseline value as a continuous covariate. Randomization was stratified by categories of LDL-C value (<3.5 mmol/L [<135 mg/dL] or >3.5 mmol/L [≥135 mg/dL]) only to ensure similar distribution of LDL-C across all treatment groups; however, the MMRM model included the original scale of the LDL-C value as a continuous covariate. The Restricted Maximum Likelihood estimation approach was used with an unstructured covariance matrix. The least squares (LS) means, standard errors, and 2-sided 95% confidence intervals (CIs) for each treatment group, for the pairwise comparisons of the combination therapy, obicetrapib monotherapy, and ezetimibe monotherapy to placebo, and for the pairwise comparisons of combination therapy and obicetrapib monotherapy versus ezetimibe monotherapy are provided. The treatment comparison was performed using a 2-sided test at the α=0.05 level of significance.
(§3) Similar MMRM models were used for the exploratory efficacy endpoints. The proportion of participants at Day 57 that achieved LDL-C<2.6 mmol/L (<100 mg/dL), LDL-C<1.8 mmol/L (<70 mg/dL), and LDL-C<1.3 mmol/L (<50 mg/dL) were examined through Logistic Regression Models for binary variables with covariates of the treatment groups and the baseline variable.
This study was a placebo-controlled, double-blind, randomized Phase 2 study in participants with mild dyslipidemia to evaluate the efficacy, safety, and tolerability of obicetrapib and ezetimibe combination therapy. The primary efficacy endpoint was percent change from Day 1 to Day 57 in LDL-C for the obicetrapib 5 mg+ezetimibe 10 mg group compared to the placebo group.

[2] = test system: apolipoprotein B (ApoB); assay: Phase 2 study of obicetrapib and ezetimibe in mild dyslipidaemia: ApoB; type: in vivo, human
Excerpt: as §1, §2
Similar MMRM models were developed to examine the percent change from Day 1 to Day 57 in LDL-C (for other pairwise treatment group comparisons beside the analysis specified for the primary efficacy endpoint, using the Friedewald formula) or ApoB. In order to maintain the overall Type 1 error rate, the secondary efficacy endpoints were tested sequentially at the 0.05 significance level according to the pre-specified order of hierarchy. This applied to the following analyses: • Percent change from Day 1 to Day 57 in LDL-C for the obicetrapib monotherapy group compared to the placebo group; • Percent change from Day 1 to Day 57 in ApoB for the combination therapy group compared to the placebo group; • Percent change from Day 1 to Day 57 in ApoB for the obicetrapib monotherapy group compared to the placebo group; • Percent change from Day 1 to Day 57 in LDL-C for combination therapy group compared to the ezetimibe monotherapy group; • Percent change from Day 1 to Day 57 in LDL-C for the obicetrapib monotherapy group compared to the ezetimibe monotherapy group; • Percent change from Day 1 to Day 57 in LDL-C, for the ezetimibe monotherapy group compared to the placebo group; and • Percent change from Day 1 to Day 57 in ApoB for the combination therapy group compared to the ezetimibe monotherapy group.

[3] = test system: non-high-density lipoprotein cholesterol (non-HDL-C); assay: Phase 2 study: non-HDL-C; type: in vivo, human; conditions: Day 57
Description: as §2, §3

[4] = test system: high-density lipoprotein cholesterol (HDL-C); assay: Phase 2 study: HDL-C; type: in vivo, human; conditions: Day 57
Description: as §2, §3

[5] = test system: apolipoprotein E (ApoE); assay: Phase 2 study: ApoE; type: in vivo, human; conditions: Day 57
Description: as §2, §3

[6] = Phase 2 study: safety and tolerability (adverse events); type: in vivo, human
Excerpt: The Safety Population included all participants who received at least 1 dose of any study drug. Treatment classification was based on the actual treatment received. The Safety Population was the primary population used for the safety analyses.
The Safety Population was the primary population for the safety analyses. All safety endpoints are summarized descriptively. No statistical inference was applied to the safety endpoints.
AEs were categorized by primary system organ class (SOC) and preferred term (PT) as coded using the Medical Dictionary for Regulatory Activities (version 23.0) category designations. Summaries of AEs, including the count and percentage of participants who experienced an AE, are provided.
An overview of treatment-emergent adverse events (TEAEs) is provided, including counts and percentages of participants (and event counts).
Listings are presented specifically for TEAEs, treatment-emergent serious adverse events (TESAEs), and TEAEs leading to discontinuation of study drug.

[7] = Phase 2 study: pharmacokinetics of obicetrapib; type: in vivo, human; conditions: by 8 weeks after long-term daily dosing
Excerpt: Plasma obicetrapib concentrations will be summarized with descriptive statistics based on the PK Population. Exploration of any relationships with obicetrapib exposure will be performed, as appropriate.
The PK Population included all participants in the mITT Population who had sufficient blood samples collected for valid estimation of PK parameters.

[8] = test system: LDL-C; conditions: cited from earlier work
[9] = test system: HDL-C; conditions: cited from earlier work
[10] = target: T1, CETP (Homo sapiens, UniProt P11597); conditions: 5 mg obicetrapib dose; healthy subjects and patients; multiple dose; cited from earlier work
T1 construct: from tissue; host or cells: plasma of the dosed clinical-study subjects (endogenous CETP)
T1 sequence (P11597 18-493): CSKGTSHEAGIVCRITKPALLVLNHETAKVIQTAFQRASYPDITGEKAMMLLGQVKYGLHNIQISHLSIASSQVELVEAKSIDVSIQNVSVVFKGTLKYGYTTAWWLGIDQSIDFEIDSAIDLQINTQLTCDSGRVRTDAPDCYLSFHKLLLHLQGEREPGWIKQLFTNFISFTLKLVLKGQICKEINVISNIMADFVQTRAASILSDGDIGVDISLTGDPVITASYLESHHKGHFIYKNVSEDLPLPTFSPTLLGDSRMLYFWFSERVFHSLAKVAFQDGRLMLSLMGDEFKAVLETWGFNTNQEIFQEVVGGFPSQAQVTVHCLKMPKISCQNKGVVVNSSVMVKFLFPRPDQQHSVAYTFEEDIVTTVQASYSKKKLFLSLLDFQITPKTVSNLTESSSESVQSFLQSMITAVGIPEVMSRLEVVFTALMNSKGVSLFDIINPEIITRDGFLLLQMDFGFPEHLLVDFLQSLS

[11] = mITT population, mild dyslipidaemia, oral once daily, Day 57
[12] = mITT population, oral once daily, baseline to Day 57
[13] = previous multiple-dose clinical studies, 5 mg obicetrapib dose, healthy subjects and patients

Q: For CCOC(=O)N1c2ccc(C(F)(F)F)cc2[C@@H](N(Cc2cc(C(F)(F)F)cc(C(F)(F)F)c2)c2ncc(OCCCC(=O)O)cn2)C[C@H]1C [Obicetrapib 5 mg], which “Number of participants that achieved LDL-C<70 mg/dL by Friedewald formula” value ([1]; Day 57) is on record?
A: 7 participants

Q: And the “Number of participants that achieved LDL-C<100 mg/dL by Friedewald formula” value ([1]; Day 57)?
A: 16 participants

Q: What about the “Percentage of participants that achieved LDL-C<70 mg/dL by Friedewald formula” value ([1]; Day 57) of the same molecule?
A: 25.0%

Q: What about the “Percentage of participants that achieved LDL-C<100 mg/dL by Friedewald formula” value ([1]; Day 57) of the same molecule?
A: 57.1%

Q: What about the “LDL-C by Friedewald formula at Day 57, mean” value [1, 11] of the same molecule?
A: 87.0 mg/dL

Q: And the “LDL-C by Friedewald formula at Day 57, median” value [1, 11]?
A: 87.0 mg/dL

Q: What about the “Change from baseline to Day 57 in LDL-C by Friedewald formula, mean” value [1, 12] of the same molecule?
A: -39.5 mg/dL

Q: And the “Change from baseline to Day 57 in LDL-C by Friedewald formula, median” value [1, 12]?
A: -41.0 mg/dL

Q: What about the “Percent change from baseline to Day 57 in LDL-C by Friedewald formula, mean” value [1, 12] of the same molecule?
A: −31.88%

Q: What about the “Percent change from baseline to Day 57 in LDL-C by Friedewald formula, median” value [1, 12] of the same molecule?
A: −34.40%

Q: What about the “Percent change from baseline in ApoB compared to placebo (in words)” value ([2]; Day 57, compared to placebo) of the same molecule?
A: significant reductions

Q: What about the “ApoB at Day 57, mean” value [2, 11] of the same molecule?
A: 78.3 mg/dL

Q: And the “ApoB at Day 57, median” value [2, 11]?
A: 75.0 mg/dL

Q: And the “Change from baseline to Day 57 in ApoB, mean” value [2, 12]?
A: -22.6 mg/dL

Q: What about the “Change from baseline to Day 57 in ApoB, median” value [2, 12] of the same molecule?
A: -24.0 mg/dL

Q: What about the “Percent change from baseline to Day 57 in ApoB, mean” value [2, 12] of the same molecule?
A: −22.15%

Q: And the “Percent change from baseline to Day 57 in ApoB, median” value [2, 12]?
A: −23.50%

Q: What about the “Percent change from baseline in non-HDL-C compared to placebo (in words)” value [3] of the same molecule?
A: significant reductions

Q: What about the “Percent change from baseline in HDL-C compared to placebo (in words)” value [4] of the same molecule?
A: significant increases

Q: And the “Percent change from baseline in ApoE compared to placebo (in words)” value [5]?
A: significant increases

Q: What about the “Safety and tolerability (in words)” value ([6]; 8 weeks of treatment, oral once daily) of the same molecule?
A: generally safe and well tolerated

Q: And the “Participants who experienced at least 1 TEAE, number” value ([6]; Safety Population)?
A: 4 participants

Q: And the “Participants who experienced at least 1 TEAE, percentage” value ([6]; Safety Population)?
A: 14.3%

Q: And the “Participants who experienced at least 1 study drug-related TEAE, number” value ([6]; Safety Population)?
A: 1 participants

Q: And the “Participants who experienced at least 1 study drug-related TEAE, percentage” value ([6]; Safety Population)?
A: 3.6%

Q: What about the “Participants with a TEAE with a maximum severity of moderate, number” value ([6]; Safety Population) of the same molecule?
A: 1 participants

Q: And the “Participants with a TEAE with a maximum severity of moderate, percentage” value ([6]; Safety Population)?
A: 3.6%

Q: What about the “Elimination of obicetrapib (in words)” value [7] of the same molecule?
A: almost complete elimination

Q: What about the “Effect on LDL cholesterol concentrations (in words)” value ([8]; Phase II trial TULIP, 10 mg and 5 mg obicetrapib as monotherapy) of the same molecule?
A: able to reduce LDL cholesterol concentrations

Q: And the “Effect on LDL-C levels (in words)” value [8, 13]?
A: decreased

Q: What about the “Effect on HDL cholesterol concentration (in words)” value ([9]; Phase II trial TULIP, mono-therapy and in combination with statins) of the same molecule?
A: increased considerably

Q: What about the “Effect on HDL-C levels (in words)” value [9, 13] of the same molecule?
A: increased

Q: What about the “CETP activity and concentrations (in words)” value [10] of the same molecule?
A: effectively reduced
